Earlier results, collected in patent US5985868A, “Methods and compositions for treating androgen-dependant diseases using optically pure R-(-) casodex” (Sepracor Inc., priority 1998, dated 1999).

Key:
[1] = system: serum testosterone, estradiol and LH; details: observed at all doses (10-50 mg p.o. per day)
[2] = racemic casodex at 30 or 50 mg
[3] = system: prostatic acid phosphatase; details: human volunteers, 10-50 mg p.o. per day
[4] = system: peripheral androgen receptors
[5] = estimated from oral studies
[6] = control of morning sickness during pregnancy
[7] = in vivo
beta-adrenergic = details: L-form versus D-enantiomer
androgen = details: in vivo
progesterone receptors = details: at 5 nm
glucocorticoid receptors = details: at 5 nm

In the case of `CC(O)(CS(=O)(=O)c1ccc(F)cc1)C(=O)Nc1ccc(C#N)c(C(F)(F)F)c1` (racemic) [racemic casodex, 4'-cyano-3-[(4-fluorophenyl)sulfonyl]-2-hydroxy-2-methyl-3'-(trifluoromethyl)propionanilide], the “elevations of serum testosterone, estradiol and LH” value [1] is given as “Significant but mild elevations”, the “patients reporting gynecomastia and breast tenderness” value [2] is given as “Over half the patients” and the “patients reporting hot flushes” value [2] is given as “about 20%”. For the same compound, the “patients reporting nausea and vomiting, bone pain, confusion, constipation, headache, diarrhea, dyspepsia, fatigue, dizziness or rash” value [2] was “less than 10%”, the “reduction in prostatic acid phosphatase levels” value [3] was 50 to 60% and the “agonist component at peripheral androgen receptors” value [4] was “little if any agonist component”. For the same compound, the glucocorticoid activity (glucocorticoid activity) was “no progestational or glucocorticoid activity” and the average half life [5] was “about 8 days”.
For `O=C1CCC(N2C(=O)c3ccccc3C2=O)C(=O)N1` [D-enantiomer of thalidomide, thalidomide], the sedative effect [6] is given as “safe and effective sedative”.
In the case of `O=C1CCC(N2C(=O)c3ccccc3C2=O)C(=O)N1` [L-enantiomer of thalidomide, thalidomide], the teratogenicity [7] is given as “potent teratogen”.
For `CC(C)NCC(O)COc1cccc2ccccc12` [L-form of propranolol, propranolol], the “potency relative to the D-enantiomer” value (beta-adrenergic) is listed as 100 times.
In the case of `C[C@](O)(CS(=O)(=O)c1ccc(F)cc1)C(=O)Nc1ccc(C#N)c(C(F)(F)F)c1` [R-(-)-casodex, N-[4-cyano-3-(trifluoromethyl)phenyl]-3-[(4-fluorophenyl)sulfonyl]-2-hydroxy-2-methylpropanamide], the “ED50 in inhibiting androgen in rats” value (androgen) is listed as 0.5 mg/kg.
For `C[C@]1(O)CC[C@H]2[C@@H]3CCC4=CC(=O)CCC4=C3C=C[C@@]21C` [[^3 H]-R1881, methyltrienolone], the “binding to progesterone receptors” value (progesterone receptors) is listed as “approximately 5%” and the “binding to glucocorticoid receptors” value (glucocorticoid receptors) is listed as “approximately 5%”.
